In patent US20240173329A1, “BELVARAFENIB FOR USE IN TREATMENT OF BRAIN CANCERS” (Genentech, Inc., priority 2021, published 2024):

Assay: Brain to plasma ratio of belvarafenib, summary over mice and rats
Type: in vivo
Conditions: for Kp: mouse, rat, brain/plasma
Procedure: Pharmacokinetic parameters of belvarafenib were calculated from plasma and brain concentration-time data by a non-compartmental method using Phoenix™ WinNonlin 8.1 (Certara, USA). The peak plasma and brain concentration (Cmax) and the corresponding time (Tmax) were directly obtained from the raw data. The area under the plasma curve (AUClast) was obtained by linear-log trapezoidal summation. Other PK parameters such as AUC from dosing time extrapolated to infinity (AUCinf), half-life (t1/2) and mean residence time (MTRlast) were calculated using WinNonlin. The plasma and brain concentrations of belvarafenib were presented as MEAN±S.D. The brain to plasma (B/P) ratio of Belvarafenib was calculated by dividing AUClast in the brain by AUClast in the plasma.
The brain to plasma ratio is expressed in terms of B/P (nonclinical) defined as the percentage of brain exposure relative to plasma. The B/P for belvarafenib was determined experimentally according to the present disclosure and wherein the B/P of 93% is for mice and the B/P of 138% is for rats. The B/P for DAY101 is for mice was taken from Gampa, et al., “Brain Distribution and Active Efflux of Three pan-RAF Inhibitors: Considerations in the Treatment of Melanoma Brain Metastases”, J Pharmacol Exp Ther 368:446-461, March 2019. The B/P for dabrafenib is for mice and was taken from Mittapalli, et al., “Mechanisms Limiting Distribution of the Threonine-Protein Kinase B-RaFV600E Inhibitor Dabrafenib to the Brain: Implications for the Treatment of Melanoma Brain Metastases”, J Pharmacol Exp Ther 344:[…], 2013. The B/P for vemurafenib is for mice and was taken from Mittapalli, et al., “Impact of P-glycoprotein (ABCB1) and breast cancer resistance protein (ABCG2) on the brain distribution of a novel BRAF inhibitor: vemurafenib (PLX4032)”, J Pharmacol Exp Ther 342:33-40, 2013. […]

## Cc1ccc2c(Nc3cccc(Cl)c3F)nccc2c1NC(=O)c1csc2c(N)ncnc12 [Belvarafenib, 4-amino-N-(1-((3-chloro-2-fluorophenyl)amino)-6-methylisoquinolin-5-yl)thieno[3,2-d]pyrimidine-7-carboxamide]
93% mice, 138% rats
  B/P (nonclinical), percentage of brain exposure relative to plasma: 93-138%
oral, 30 mg/kg
  Kp: 0.8 to 1.2
Mice and rats, oral administration
  Kp: ~1
